Data taken from PubChem BioAssay (NCI).
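Step 1: Grow cells in 96-well plates. Step 2: Expose to compound for 48 hours at 5 concentrations. Step 3: Interpolate endpoints linearly; if unreached, use highest concentration. At the TGI there is no net growth.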

How the values were obtained:
Assay in all cases: NCI-60 cell line screen, 48 h
[1] = test system: 786-0 renal
[2] = test system: A498 renal
[3] = test system: A549 NSCLC
[4] = test system: ACHN renal
[5] = test system: BT-549 breast
[6] = test system: CAKI-1 renal
[7] = test system: CCRF-CEM leukemia
[8] = test system: COLO 205 colon
[9] = test system: DU-145 prostate
[10] = test system: EKVX NSCLC
[11] = test system: HCC-2998 colon
[12] = test system: HCT-116 colon
[13] = test system: HCT-15 colon
[14] = test system: HL-60(TB) leukemia
[15] = test system: HOP-62 NSCLC
[16] = test system: HOP-92 NSCLC
[17] = test system: HS 578T breast
[18] = test system: HT29 colon
[19] = test system: IGROV1 ovarian
[20] = test system: K-562 leukemia
[21] = test system: KM12 colon
[22] = test system: LOX IMVI melanoma
[23] = test system: M14 melanoma
[24] = test system: MCF7 breast
[25] = test system: MDA-MB-231 breast
[26] = test system: MDA-MB-435
[27] = test system: MDA-N
[28] = test system: MOLT-4 leukemia
[29] = test system: NCI-H226 lung
[30] = test system: NCI-H23 lung
[31] = test system: NCI-H460 lung
[32] = test system: NCI-H522 lung
[33] = test system: NCI/ADR-RES ovarian
[34] = test system: OVCAR-3 ovarian
[35] = test system: OVCAR-4 ovarian
[36] = test system: OVCAR-5 ovarian
[37] = test system: OVCAR-8 ovarian
[38] = test system: PC-3 prostate
[39] = test system: RPMI-8226 leukemia
[40] = test system: RXF 393 renal
[41] = test system: SF-268 CNS
[42] = test system: SF-295 CNS
[43] = test system: SF-539 CNS
[44] = test system: SK-MEL-2 melanoma
[45] = test system: SK-MEL-28 melanoma
[46] = test system: SK-MEL-5 melanoma
[47] = test system: SK-OV-3 ovarian
[48] = test system: SN12C renal
[49] = test system: SNB-19 CNS
[50] = test system: SNB-75 CNS
[51] = test system: SR leukemia
[52] = test system: SW-620 colon
[53] = test system: T-47D breast
[54] = test system: TK-10 renal
[55] = test system: U251 CNS
[56] = test system: UACC-257 melanoma
[57] = test system: UACC-62 melanoma
[58] = test system: UO-31 renal
[59] = test system: MALME-3M melanoma

SMILES: COC(=O)c1ccccc1NC(=NC1CCCCCC1)NS(=O)(=O)c1ccc(C)cc1
- TGI [1]: > 100 µM
- TGI [2]: > 100 µM
- TGI [3]: > 100 µM
- TGI [4]: > 100 µM
- TGI [5]: > 100 µM
- TGI [6]: > 100 µM
- TGI [7]: > 100 µM
- TGI [8]: > 100 µM
- TGI [9]: > 100 µM
- TGI [10]: > 100 µM
- TGI [11]: > 100 µM
- TGI [12]: > 100 µM
- TGI [13]: > 100 µM
- TGI [14]: > 100 µM
- TGI [15]: > 100 µM
- TGI [16]: > 100 µM
- TGI [17]: > 100 µM
- TGI [18]: > 100 µM
- TGI [19]: > 100 µM
- TGI [20]: > 100 µM
- TGI [21]: > 100 µM
- TGI [22]: > 100 µM
- TGI [23]: > 100 µM
- TGI [24]: > 100 µM
- TGI [25]: > 100 µM
- TGI [26]: > 100 µM
- TGI [27]: > 100 µM
- TGI [28]: > 100 µM
- TGI [29]: > 100 µM
- TGI [30]: > 100 µM
- TGI [31]: > 100 µM
- TGI [32]: > 100 µM
- TGI [33]: > 100 µM
- TGI [34]: > 100 µM
- TGI [35]: > 100 µM
- TGI [36]: > 100 µM
- TGI [37]: > 100 µM
- TGI [38]: > 100 µM
- TGI [39]: > 100 µM
- TGI [40]: > 100 µM
- TGI [41]: > 100 µM
- TGI [42]: > 100 µM
- TGI [43]: > 100 µM
- TGI [44]: > 100 µM
- TGI [45]: > 100 µM
- TGI [46]: > 100 µM
- TGI [47]: > 100 µM
- TGI [48]: > 100 µM
- TGI [49]: > 100 µM
- TGI [50]: > 100 µM
- TGI [51]: > 100 µM
- TGI [52]: > 100 µM
- TGI [53]: > 100 µM
- TGI [54]: > 100 µM
- TGI [55]: > 100 µM
- TGI [56]: > 100 µM
- TGI [57]: > 100 µM
- TGI [58]: > 100 µM

SMILES: Cc1cc(C)c(O)c(CN2CCN(C(C)C)CCN(C(C)C)CC2)c1
- TGI [1]: > 100 µM
- TGI [2]: > 100 µM
- TGI [3]: > 100 µM
- TGI [4]: > 100 µM
- TGI [5]: 54 µM
- TGI [6]: > 100 µM
- TGI [7]: 83.9 µM
- TGI [8]: 60.8 µM
- TGI [9]: > 100 µM
- TGI [10]: > 100 µM
- TGI [11]: 40.8 µM
- TGI [12]: 85.2 µM
- TGI [13]: > 100 µM
- TGI [14]: 71 µM
- TGI [16]: 65.2 µM
- TGI [17]: > 100 µM
- TGI [19]: 18.1 µM
- TGI [20]: > 100 µM
- TGI [21]: 46.5 µM
- TGI [22]: 42.6 µM
- TGI [23]: 26.2 µM
- TGI [59]: 31.9 µM
- TGI [24]: > 100 µM
- TGI [25]: > 100 µM
- TGI [26]: 64.4 µM
- TGI [27]: 68.3 µM
- TGI [28]: 47.3 µM
- TGI [29]: > 100 µM
- TGI [31]: > 100 µM
- TGI [32]: 68 µM
- TGI [33]: > 100 µM
- TGI [34]: > 100 µM
- TGI [35]: > 100 µM
- TGI [36]: > 100 µM
- TGI [37]: 94.9 µM
- TGI [38]: > 100 µM
- TGI [39]: > 100 µM
- TGI [40]: 45 µM
- TGI [41]: > 100 µM
- TGI [42]: 85.3 µM
- TGI [43]: 30.8 µM
- TGI [44]: > 100 µM
- TGI [45]: 72.8 µM
- TGI [48]: 83.9 µM
- TGI [49]: > 100 µM
- TGI [50]: > 100 µM
- TGI [51]: 64 µM
- TGI [52]: > 100 µM
- TGI [53]: 61 µM
- TGI [54]: > 100 µM
- TGI [55]: > 100 µM
- TGI [56]: 35.5 µM
- TGI [57]: > 100 µM
- TGI [58]: 82.9 µM
